Data on 12 compounds can be found in ChEMBL document CHEMBL1201862, “PubChem BioAssay data set” (2004).

Some test systems named below: OVCAR-5; HOP-92; U-251; NCI-H226; MDA-MB-231; SK-MEL-28; M14; IGROV-1; SNB-75; ACHN; HT-29; BT-549; PC-3; MCF7; NCI-H460; Hs-578T; UACC-257; A498; DU-145; KM-20L2.
Experiment in all cases: inhibition of tumour cell growth, NCI panel, 48 h

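Results reflect a 48-hour exposure of cells in 96-well plates to compound at five concentrations. GI50 marks 50% less growth.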 Activity calls are given as the source filed them. Cut-off read from the data, not from the text of the source: active = GI50 up to about 1.1 µM and inactive = higher.

Consider `Cn1cc(-c2cnc(-c3cn(C)c4ccccc34)cn2)c2ccccc21`, for which the GI50 in the test with OVCAR-5 was 14 µM (inactive); in the test with HOP-92, 12.9 µM (inactive); in the test with U-251, 4.06 µM (inactive); with NCI-H226 it was 6.31 µM (inactive); with MDA-MB-231, 15 µM (inactive); in the test with SK-MEL-28 it was 6.37 µM (inactive). Besides, the GI50 in the test on M14 is 3.47 µM (inactive); in the test on IGROV-1, 3.8 µM (inactive); with SNB-75, 2.77 µM (inactive); in the test on ACHN, 5.83 µM (inactive); in the test with HT-29 it was 4.78 µM (inactive); in the test on BT-549, 14.1 µM (inactive). For the same compound, the GI50 with PC-3 is 3.73 µM (inactive); with MCF7, 0.194 µM (active); in the test with NCI-H460 it was 4.51 µM (inactive); with Hs-578T, 2.57 µM (inactive); in the test with UACC-257, 16 µM (inactive); in the test on A498, 4.69 µM (inactive). Also, the GI50 in the test with DU-145 is 5.27 µM (inactive).

`Cc1cc(NC[C@H](O)[C@H](O)[C@H](O)CO)c(Sc2cc(=O)[nH]c(=O)[nH]2)cc1C`: the GI50 in the test on OVCAR-5, in the test with HOP-92, in the test with U-251, in the test with NCI-H226, in the test on MDA-MB-231 and in the test on SK-MEL-28 was > 62.5 µM (inactive) throughout. Moreover, the GI50 in the test with M14, in the test on IGROV-1, in the test on SNB-75, in the test on ACHN, in the test on HT-29 and in the test with BT-549 was > 62.5 µM (inactive) throughout. The GI50 in the test with PC-3, with MCF7, with NCI-H460, in the test on Hs-578T, in the test with UACC-257 and in the test with A498 was > 62.5 µM (inactive) each time. The GI50 in the test on DU-145 was > 62.5 µM (inactive).

For `O=C1CCCCC1CN1CCCC1` (stereo not given), the GI50 in the test on OVCAR-5, with U-251, with NCI-H226, with KM-20L2, in the test on SK-MEL-28 and in the test on M14 was > 100 µM (inactive) in each case. Further, the GI50 in the test on IGROV-1, in the test on SNB-75, in the test on ACHN, in the test with HT-29, in the test with NCI-H460 and in the test on UACC-257 was > 100 µM (inactive) in each case. The GI50 in the test with A498 is > 100 µM (inactive).

For `CC1(C)CC(=O)C2=C(C1)NC1=C(C(=O)CC(C)(C)C1)C2c1ccc([N+](=O)[O-])cc1`, the GI50 in the test on OVCAR-5, with HOP-92, with U-251, in the test with NCI-H226, with MDA-MB-231 and with SK-MEL-28 was > 100 µM (inactive) each time. For the same compound, the GI50 in the test with M14 is > 100 µM (inactive); in the test on IGROV-1 it was > 100 µM (inactive); with SNB-75, 16.7 µM (inactive); with ACHN, > 100 µM (inactive); with HT-29, > 100 µM (inactive); in the test on BT-549, > 100 µM (inactive). Moreover, the GI50 in the test on PC-3, in the test with MCF7, in the test on NCI-H460, with Hs-578T, with UACC-257 and in the test with A498 was > 100 µM (inactive) each time. Further, the GI50 in the test on DU-145 was > 100 µM (inactive).

As to `COC(=O)C1=C(SC)SC2(C(=O)OC)C3C=C(C)C4C(N13)C42C(=O)OC` (stereo not given), the GI50 with OVCAR-5, in the test with U-251, in the test on NCI-H226, in the test with KM-20L2, with SK-MEL-28 and in the test with M14 was > 100 µM (inactive) throughout. For the same compound, the GI50 in the test on IGROV-1, in the test on SNB-75, in the test with ACHN, in the test on HT-29, in the test with NCI-H460 and in the test with UACC-257 was > 100 µM (inactive) in each case.

As for `C=C(CCCO)[C@@H]1CC[C@@](C)(O)[C@H]1C`, the GI50 with OVCAR-5, with U-251, with NCI-H226, with KM-20L2, in the test with SK-MEL-28 and in the test on IGROV-1 was > 100 µM (inactive) each time. The GI50 is 33.1 µM (inactive) in the test with SNB-75; > 100 µM (inactive) in the test with ACHN; > 100 µM (inactive) in the test with HT-29; > 100 µM (inactive) with NCI-H460; > 100 µM (inactive) in the test on UACC-257.

Consider `COc1cc2c(cc1OC)C(C#N)(Cc1ccccc1)N(C(=O)c1ccccc1)C=C2` (stereo not given), for which the GI50 was > 100 µM (inactive) in the test on OVCAR-5; 58.2 µM (inactive) with HOP-92; > 100 µM (inactive) in the test with U-251; 63 µM (inactive) with NCI-H226; 67.3 µM (inactive) in the test on KM-20L2; > 100 µM (inactive) in the test on SK-MEL-28. Also, the GI50 in the test with M14 was > 100 µM (inactive); with IGROV-1 it was > 100 µM (inactive); in the test on SNB-75, 70.6 µM (inactive); in the test on ACHN, 82.8 µM (inactive); with HT-29, 60.8 µM (inactive); in the test on NCI-H460, 46.3 µM (inactive). Besides, the GI50 in the test with UACC-257 is 50.6 µM (inactive).

`Cc1cc2c(c(/C=N/c3ccc([N+](=O)[O-])cc3)c1)OC1(C=C2)Oc2ccccc2C(=O)N1C` (stereo not given): the GI50 is 28.6 µM (inactive) in the test with OVCAR-5; 24.1 µM (inactive) with HOP-92; 21.7 µM (inactive) with U-251; 16 µM (inactive) in the test on NCI-H226; 16.9 µM (inactive) in the test with MDA-MB-231; 19.9 µM (inactive) in the test with SK-MEL-28. For the same compound, the GI50 in the test on M14 is 23.3 µM (inactive); with IGROV-1 it was 18.8 µM (inactive); in the test on SNB-75, 14.6 µM (inactive); in the test with ACHN it was 14.8 µM (inactive); with HT-29, 18.2 µM (inactive); in the test with BT-549, 19.6 µM (inactive). Further, the GI50 was 18 µM (inactive) with PC-3; 17.6 µM (inactive) in the test on MCF7; 21.8 µM (inactive) in the test with NCI-H460; 27.2 µM (inactive) in the test on Hs-578T; 21.2 µM (inactive) with UACC-257; 16.8 µM (inactive) in the test on A498. Besides, the GI50 in the test on DU-145 was 22.3 µM (inactive).

With `O=C(c1ccccc1)[C@@H]1C[C@H](Sc2ccccc2)c2cc(Cl)ccc2N1`, the GI50 is 37.6 µM (inactive) in the test with OVCAR-5; 21.2 µM (inactive) in the test on U-251; 25.6 µM (inactive) with NCI-H226; 26.9 µM (inactive) in the test with KM-20L2; 17.9 µM (inactive) with SK-MEL-28; 28.2 µM (inactive) in the test with M14. Moreover, the GI50 was 32.3 µM (inactive) in the test on IGROV-1; 18.8 µM (inactive) in the test with SNB-75; 29.2 µM (inactive) in the test on ACHN; 22.2 µM (inactive) with HT-29; 26.5 µM (inactive) in the test on NCI-H460; 17.1 µM (inactive) with UACC-257. In addition, in the test with A498, the GI50 is 11.5 µM (inactive).

For `CSc1c(C#N)c(N)n2c1C(=O)N(c1ccccc1)C2=S`, the GI50 in the test on OVCAR-5 is > 100 µM (inactive); in the test on HOP-92, 31.3 µM (inactive); in the test with U-251, 41.9 µM (inactive); with NCI-H226, > 100 µM (inactive); in the test with MDA-MB-231, 20.3 µM (inactive); in the test on SK-MEL-28, > 100 µM (inactive). Further, the GI50 in the test with M14 was > 100 µM (inactive); in the test on IGROV-1 it was 41.7 µM (inactive); in the test with SNB-75, 53.3 µM (inactive); with ACHN it was 48.2 µM (inactive); in the test with HT-29, 90.2 µM (inactive); with BT-549, > 100 µM (inactive). Besides, the GI50 with PC-3 is 61.7 µM (inactive); in the test on MCF7 it was > 100 µM (inactive); in the test with NCI-H460 it was > 100 µM (inactive); in the test with Hs-578T it was 28 µM (inactive); in the test with UACC-257 it was > 100 µM (inactive); with A498, 23 µM (inactive). Besides, in the test on DU-145, the GI50 is > 100 µM (inactive).

`CN(C)Cc1cc(C(=O)/C=C/c2ccccc2Cl)cc(CN(C)C)c1O`: the GI50 in the test with OVCAR-5 was 23.1 µM (inactive); in the test on HOP-92, 18.1 µM (inactive); in the test on U-251, 13.8 µM (inactive); with NCI-H226, 24.3 µM (inactive); in the test on MDA-MB-231, 12.2 µM (inactive); with SK-MEL-28, 14.7 µM (inactive). The GI50 in the test with M14 was 11.2 µM (inactive); with IGROV-1, 13.6 µM (inactive); in the test on SNB-75, 5.51 µM (inactive); in the test on ACHN, 4.45 µM (inactive); in the test with HT-29, 3.13 µM (inactive); in the test with BT-549, 8.51 µM (inactive). In addition, the GI50 in the test with PC-3 was 13.2 µM (inactive); with MCF7, 9.66 µM (inactive); with NCI-H460 it was 4.6 µM (inactive); in the test on Hs-578T it was 18.3 µM (inactive); in the test with UACC-257, 15.4 µM (inactive); with A498, 12.9 µM (inactive). In addition, the GI50 in the test with DU-145 is 12.3 µM (inactive).

As for `[C-]#[N+]C(=C\c1ccc(O)cc1)/C(=C/c1ccc(O)cc1)[N+]#[C-]` [XANTOCILLIN], the GI50 in the test with OVCAR-5 was 4.94 µM (inactive); in the test on HOP-92, 2.9 µM (inactive); with U-251, 1.57 µM (inactive); in the test on NCI-H226, 2.37 µM (inactive); in the test on MDA-MB-231, 2.74 µM (inactive); in the test on SK-MEL-28, 2.61 µM (inactive). The GI50 is 2.28 µM (inactive) in the test with M14; 2.13 µM (inactive) in the test with IGROV-1; 1.12 µM (inactive) in the test with SNB-75; 2.03 µM (inactive) in the test with ACHN; 10.9 µM (inactive) in the test with HT-29; 2.41 µM (inactive) in the test on BT-549. Also, the GI50 was 3.65 µM (inactive) in the test on PC-3; 1.55 µM (inactive) in the test on MCF7; 2.42 µM (inactive) in the test with NCI-H460; 0.718 µM (active) in the test with Hs-578T; 2.53 µM (inactive) in the test with UACC-257; 3.06 µM (inactive) in the test with A498. The GI50 in the test on DU-145 was 2.53 µM (inactive).
